Reference: PubChem BioAssay (NCI)
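Where inhibition never reached the appropriate level, the endpoint shown equals the highest concentration tested. Otherwise, values were interpolated linearly from a five-concentration, 48-hour dose response in 96-well plates. TGI marks complete inhibition of growth.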

Tests used:
Assay in all cases: NCI anticancer screen, dose series, 48 h
EKVX NSCLC = test system: EKVX NSCLC
A549 NSCLC = test system: A549 NSCLC
786-0 renal = test system: 786-0 renal
SN12C renal = test system: SN12C renal
UACC-257 melanoma = test system: UACC-257 melanoma
U251 CNS = test system: U251 CNS
SR leukemia = test system: SR leukemia
HL-60(TB) leukemia = test system: HL-60(TB) leukemia
HCC-2998 colon = test system: HCC-2998 colon
NCI-H460 lung = test system: NCI-H460 lung
LOX IMVI melanoma = test system: LOX IMVI melanoma
HT29 colon = test system: HT29 colon
HCT-15 colon = test system: HCT-15 colon
HCT-116 colon = test system: HCT-116 colon
HOP-62 NSCLC = test system: HOP-62 NSCLC
PC-3 prostate = test system: PC-3 prostate
MDA-MB-435 = test system: MDA-MB-435

Structure (SMILES) | TGI (EKVX NSCLC) | TGI (A549 NSCLC) | TGI (786-0 renal) | TGI (SN12C renal) | TGI (UACC-257 melanoma) | TGI (U251 CNS) | TGI (SR leukemia) | TGI (HL-60(TB) leukemia) | TGI (HCC-2998 colon) | TGI (NCI-H460 lung) | TGI (LOX IMVI melanoma) | TGI (HT29 colon) | TGI (HCT-15 colon) | TGI (HCT-116 colon) | TGI (HOP-62 NSCLC) | TGI (PC-3 prostate) | TGI (MDA-MB-435)
COc1cc(-c2cccs2)sc1-c1cccs1 | > 100 µM | > 100 µM | > 100 µM | > 100 µM | > 100 µM | > 100 µM | 61.8 µM | 36.6 µM | > 100 µM | > 100 µM | > 100 µM | 53.3 µM | > 100 µM | > 100 µM |  |  | 
C/C(CN1C(=O)c2ccccc2C1=O)=N\NS(=O)(=O)c1ccc(Cl)cc1 | > 100 µM | > 100 µM | > 100 µM | > 100 µM | > 100 µM | > 100 µM | > 100 µM | > 100 µM | > 100 µM | > 100 µM |  | > 100 µM | > 100 µM | > 100 µM | > 100 µM |  | 
COc1cc(OCCN(C)C)c2[nH]c(C(=O)N3CC(CCl)c4ccc(N)cc43)cc2c1 (stereo not given) | 1.37 µM | > 34.3 µM | 1.47 µM |  | 0.329 µM | 3.32 µM | > 100 µM |  | 0.297 µM |  |  | 0.262 µM | 1.58 µM | 1.64 µM | 0.0507 µM | 1.34 µM | 0.281 µM
COCCOCOC(CCCCO)c1cc(C)c(O[Si](C)(C)C(C)(C)C)c(C)c1 (stereo not given) | 22.6 µM | 16.1 µM | 24.4 µM | 8.73 µM | 15.7 µM | 23.6 µM |  | 6.02 µM | 19.8 µM | 20.2 µM | 18.7 µM |  | 21.1 µM |  | 23 µM |  | 
CCNC(=O)c1ccc(C)c(N=NN(C)C)c1 | > 100 µM | > 100 µM | > 100 µM | > 100 µM | > 100 µM | > 100 µM |  |  | > 100 µM | > 100 µM | > 100 µM | > 100 µM | > 100 µM | > 100 µM | > 100 µM |  | 
C=CCNC(=S)N/C=C(\C#N)C(N)=O | > 100 µM | > 100 µM | > 100 µM | > 100 µM | > 100 µM | > 100 µM | > 100 µM | > 100 µM | > 100 µM | > 100 µM | > 100 µM | > 100 µM | > 100 µM | > 100 µM | > 100 µM | > 100 µM | > 100 µM
C/C(=N\NC(N)=S)c1ccc2c(c1)Sc1ccccc1O2 | 13.6 µM | 13.5 µM | 25.7 µM | > 100 µM | > 100 µM | 11.7 µM | > 100 µM | > 100 µM | 4.65 µM | 11.8 µM | 13.1 µM | 5.83 µM | 4.63 µM | 24.3 µM | 29 µM | 28.8 µM | 0.95 µM
COc1ccc(C2Oc3cc(OC)c(OC)cc3C2CCl)cc1OC (stereo not given) | > 100 µM | > 100 µM | > 100 µM | > 100 µM | > 100 µM | > 100 µM | > 100 µM | > 100 µM | > 100 µM | > 100 µM | > 100 µM |  | > 100 µM | > 100 µM | > 100 µM |  | 
O=C1/C(=C/c2ccco2)NC(=S)N1CN1CCCCC1 | > 100 µM | > 100 µM | > 100 µM | > 100 µM |  | > 100 µM | > 100 µM |  |  |  | > 100 µM | > 100 µM | > 100 µM | > 100 µM | > 100 µM | > 100 µM | > 100 µM
Nc1nc(Cl)cc(OCC2(CO)CC=CC2)n1 | > 100 µM | > 100 µM | > 100 µM | > 100 µM | > 100 µM | > 100 µM | > 100 µM | > 100 µM | > 100 µM | > 100 µM | > 100 µM | > 100 µM | > 100 µM | > 100 µM | > 100 µM | > 100 µM | > 100 µM
Cc1[nH]c(=O)nc2sc(=NC3CCCCC3)n(C3CCCCC3)c(=O)c12 | > 100 µM | > 100 µM | > 100 µM | > 100 µM | > 100 µM | > 100 µM |  | > 100 µM | > 100 µM |  | > 100 µM | > 100 µM | > 100 µM | > 100 µM | > 100 µM | > 100 µM | > 100 µM
COC(=O)c1cccc(C)c1C1CN=NC12Cc1cc(C)cc(C)c1C2=O (stereo not given) | 90.3 µM | > 100 µM | > 100 µM | > 100 µM | > 100 µM | > 100 µM | > 100 µM | 47.5 µM | 76.7 µM | > 100 µM | > 100 µM | 86.7 µM | > 100 µM | 66.5 µM | > 100 µM |  | 66.1 µM
N#Cc1nc(-c2cnccn2)oc1N | > 100 µM | > 100 µM | > 100 µM | > 100 µM | > 100 µM | > 100 µM | > 100 µM | > 100 µM |  |  | > 100 µM | > 100 µM | > 100 µM | > 100 µM | > 100 µM | > 100 µM | > 100 µM
CNC(=O)NCCCC(NC(C)=O)C(=O)NCc1ccccc1 (stereo not given) | > 100 µM | > 100 µM | > 100 µM | > 100 µM | > 100 µM | > 100 µM |  |  | > 100 µM | > 100 µM | > 100 µM | > 100 µM | > 100 µM | > 100 µM | > 100 µM |  | 
O=[N+]([O-])c1ccc2nc(Nc3ccccc3)c(Nc3ccccc3)nc2c1 | 6.22 µM | 2.36 µM | 7.83 µM | 2.67 µM | 5.1 µM | 1.99 µM | > 100 µM | 40.4 µM | 2.65 µM | 1.61 µM | 3.14 µM | 1.53 µM | 2.18 µM | 1.82 µM | 2.45 µM | 10.3 µM | 4.4 µM
